Reference: patent US9839642B2, “Beta-tetrazolyl-propionic acids as metallo-beta-lactamase inhibitors” (priority 2014, dated 2017)
Read-outs that look alike come from different tables or passages of the source.

Experiments:
VIM-1 = VIM-1 (Pseudomonas aeruginosa, UniProt A0A0F7KYQ8); test: Enzyme activity: determination of IC50, fluorescence assay with CCF2-FA substrate; format: biochemical; conditions: CCF2-FA 1.25 μM, 2 hours at 25° C., read-out: VIM1 IC50
Experimental: (§1) Enzyme Activity: Determination of IC50
(§2) The Class B enzyme activities were measured in the presence of a compound of the EXAMPLES as a test inhibitor in a fluorescence assay against a commercially available substrate consisting of a cephalosporin core linking 7-hydroxycoumarin to fluorescein (CCF2-FA; Life Technologies, Grand Island, N.Y.). The enzyme (NDM-1, IMP-1 or VIM-1) and the substrate were diluted in 100 mM KH2PO4 buffer (pH 7) containing 0.005% Tween-20 and 10 μM ZnSO4. In the assay, the final concentration of enzyme was 1 pM, 2 pM and 30 pM for NDM-1, IMP-1 and VIM-1, respectively, and the final concentration of CCF2-FA was 1.25 μM. The test inhibitor was dissolved in DMSO and diluted 1:50 in the assay, resulting in a final concentration range of 20 μM to 0.00063 μM. In a 384-well microplate, the test inhibitor was incubated with the metallo-β-lactamase enzyme and the substrate for 2 hours at 25° C. Fluorescence at 460 nm following excitation at 405 nm was measured. The IC50 value was determined from semi-logarithmic plots of enzyme inhibition versus inhibitor concentration, with a curve generated using a 4-parameter fit.

NDM-1 = NDM-1 (Klebsiella pneumoniae, UniProt C7C422); test: as above; format: biochemical; conditions: CCF2-FA 1.25 μM, 2 hours at 25° C., read-out: NDM1 IC50
Sequence of NDM-1 (C7C422 29-270, looked up, species assumed): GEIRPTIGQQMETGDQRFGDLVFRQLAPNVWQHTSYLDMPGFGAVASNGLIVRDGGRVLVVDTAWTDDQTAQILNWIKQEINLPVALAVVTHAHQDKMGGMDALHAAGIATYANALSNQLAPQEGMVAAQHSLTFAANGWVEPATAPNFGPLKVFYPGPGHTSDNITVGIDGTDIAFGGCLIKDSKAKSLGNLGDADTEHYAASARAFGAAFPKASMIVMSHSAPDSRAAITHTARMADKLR
Experimental: as §1, §2

IMP-1 = IMP-1 (Serratia marcescens, UniProt P52699); test: as above; format: biochemical; conditions: CCF2-FA 1.25 μM, 2 hours at 25° C., read-out: IMP1 IC50
Sequence of IMP-1 (P52699 19-246, looked up, species assumed): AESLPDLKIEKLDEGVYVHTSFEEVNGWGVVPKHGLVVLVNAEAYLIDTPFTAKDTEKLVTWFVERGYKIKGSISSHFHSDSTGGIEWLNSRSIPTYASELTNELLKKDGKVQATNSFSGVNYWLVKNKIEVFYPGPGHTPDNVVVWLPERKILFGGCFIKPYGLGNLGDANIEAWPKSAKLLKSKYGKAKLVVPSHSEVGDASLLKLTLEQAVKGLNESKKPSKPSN
Experimental: as §1, §2

[1] = test system: Klebsiella pneumoniae expressing VIM-1 (IHMA599644); test: Antibiotic potentiation activity: synergistic concentration (MITC95) with imipenem, growth by OD600; format: cell-based
Experimental: (§3) Antibiotic Potentiation Activity: Determination of Synergistic Concentration
(§4) The bacterial strains tested included the clinical strains Escherichia coli expressing NDM-1 (CLB30005, CLB30016), Serratia marcescens expressing IMP-1 (CL5741), and Klebsiella pneumoniae expressing VIM-1 (IHMA599644). Inhibitor activity was measured in the presence and absence of imipenem or ceftazidime in a 384-well microplate.
(§5) The clinical strains CLB30016, CL5741, and IHMA599644 were grown on trypticase soy agar containing 5% sheep's blood. The clinical strain CLB30005 was grown on Mueller Hinton broth agar containing 8 μg/ml imipenem. The bacteria on agar plates were incubated overnight at 35° C. with ambient humidity (achieved from an open pan of water inside the incubator). The following day, individual colonies from each clinical strain were picked and resuspended in 5 ml saline to attain an OD600 of 0.14, 0.11, 0.15 and 0.13, for CLB30005, CLB30016, CL5741 and IHMA599644, respectively. These were further diluted 1:100 into 1.1×CAMHB and used to inoculate the test wells as described below.
(§6) Imipenem in 10 mM 3-(N-morpholino)propanesulfonic acid (MOPS, pH 7) was stored in single use aliquots at −80° C. Test inhibitors were dissolved in DMSO and diluted 1:50 in the assay, resulting in a final concentration range of 200 μM to 0.195 μM. On the day of the assay, 4 μl of antibiotic was added to 45 μl of bacteria followed by 1 μl of test compound and mixed by pipetting and with an orbital shaker. The concentration of antibiotic used in the assay was 1 μg/ml or 4 μg/ml. Microplates were covered and incubated at 35° C. for 22 hours to 24 hours. At the end of the incubation, absorbance was determined using a spectrophotometer. The synergistic concentration of MBLI was determined by identifying the lowest concentration of test compound in the presence of a given concentration of antibiotic that was required to inhibit 95% of the growth of the bacteria.
(§7) Representative compounds of the present invention display a synergistic effect. For example, representative compounds of EXAMPLES 1-456 were determined to restore susceptibility to imipenem at concentrations of 200 μM or less.

[2] = test system: Serratia marcescens expressing IMP-1 (CL5741); test: as above; format: cell-based
Experimental: as §3, §4, §5, §6, §7

[3] = test system: Escherichia coli expressing NDM-1 (CLB30016); test: as above; format: cell-based
Experimental: as §3, §4, §5, §6, §7

[4] = K. pneumoniae IHMA599644 (VIM-1), 95% inhibition of growth
[5] = S. marcescens CL5741 (IMP-1), 95% inhibition of growth
[6] = E. coli CLB30016 (NDM-1), 95% inhibition of growth
[7] = 95% inhibition of bacterial growth, strain IHMA599644
[8] = 95% inhibition of bacterial growth, strain CL5741
[9] = 95% inhibition of bacterial growth, strain CLB30016

Row | Structure (SMILES) | IC50 (VIM-1; VIM-1 enzyme 30 pM) [nM] | IC50 (NDM-1; NDM-1 enzyme 1 pM) [nM] | IC50 (IMP-1; IMP-1 enzyme 2 pM) [nM] | VIM1 KP599644 MITC95 [1, 4] [µM] | IMP1 SM5741 MITC95 [2, 5] [µM] | NDM1 EC30016 MITC95 [3, 6] [µM] | IC50 (VIM-1; enzyme 30 pM) [nM] | IC50 (NDM-1; enzyme 1 pM) [nM] | IC50 (IMP-1; enzyme 2 pM) [nM] | VIM1 KP599644 MITC95 [1, 7] [µM] | IMP1 SM5741 MITC95 [2, 8] [µM] | NDM1 EC30016 MITC95 [3, 9] [µM]
1 | CC(C)C[C@H](C(=O)O)[C@H](Cc1ccc(-c2ccc(CN)cc2)c(F)c1)c1nn[nH]n1 [Example 454, (4′-((2S,3S)-3-carboxy-5-methyl-2-(2H-tetrazol-5-yl)hexyl)-2′-fluoro-[1,1′-biphenyl]-4-yl)methanaminium 2,2,2-trifluoroacetate] | 3.52 | 29.5 | 24.7 | 25 | 1.563 | 4.688 | – | – | – | – | – | –
2 | CC(C)C[C@H](C(=O)O)[C@H](Cc1ccc(Oc2ccccc2C2CCCN2)nc1)c1nn[nH]n1 (stereo partly drawn) [Example 376, (2S)-4-methyl-2-[(1S)-2-[6-(2-pyrrolidin-2-ylphenoxy)pyridin-3-yl]-1-(2H-tetrazol-5-yl)ethyl]pentanoic acid] | 4.6 | 77 | 660 | 50 | 25 | 25 | – | – | – | – | – | –
3 | CC(C)(C)[C@H](C(=O)O)[C@H](Cc1ccc(N)nc1)c1nnn[nH]1 [Example 123, (2R,3S)-4-(6-aminopyridin-3-yl)-2-(tert-butyl)-3-(1H-tetrazol-5-yl)butanoic acid] | – | – | – | – | – | – | 590 | 1100 | > 20000 | 50 | >200 | 3.1
4 | CCC[C@H](C(=O)O)[C@H](Cc1cccc(N2CCN(C)CC2)c1)c1nn[nH]n1 [Example 362, (2S)-2-[(1S)-2-[3-(4-methylpiperazin-1-yl)phenyl]-1-(2H-tetrazol-5-yl)ethyl]pentanoic acid] | 10 | 640 | 11000 | 18.8 | 150 | 25 | – | – | – | – | – | –
5 | O=C(O)[C@@H](C1CCOC1)[C@H](Cc1ccc(C2=CCNC2)cc1)c1nnn[nH]1 (stereo partly drawn) [Example 67, (2R,3S)-4-(4-(2,5-dihydro-1H-pyrrol-3-yl)phenyl)-2-(tetrahydrofuran-3-yl)-3-(1H-tetrazol-5-yl)butanoic acid] | – | – | – | – | – | – | 25 | 890 | 12000 | 25 | 50 | 12.5
6 | CCC[C@H](C(=O)O)[C@H](Cc1ccc(-c2ccc(C3(O)CNC3)cc2)nc1)c1nnn[nH]1 [Example 159, (2S)-2-[(1S)-2-{6-[4-(3-hydroxyazetidin-3-yl)phenyl]pyridin-3-yl}-1-(1H-tetrazol-5-yl)ethyl]pentanoic acid] | – | – | – | – | – | – | 23 | 400 | 3700 | 50 | 75 | 12.5
7 | CCC[C@H](C(=O)[O-])[C@H](Cc1ccc(C2CCC[N+](C)(C)C2)nc1)c1nnn[nH]1 (stereo partly drawn) [Example 292, (2S)-2-((1S)-2-(6-(1,1-dimethylpiperidin-1-ium-3-yl)pyridin-3-yl)-1-(1H-tetrazol-5-yl)ethyl)pentanoate] | 78 | 2600 | 16000 | 50 | 150 | 38 | – | – | – | – | – | –
8 | CC(C)C[C@H](C(=O)O)[C@H](Cc1ccc(N2CCCC2CO)nc1)c1nnn[nH]1 (stereo partly drawn) [Example 315, (2S)-2-[(1S)-2-{6-[2-(hydroxymethyl)pyrrolidin-1-yl]pyridin-3-yl}-1-(1H-tetrazol-5-yl)ethyl]-4-methylpentanoic acid] | 6 | 67 | 61 | 38 | 6.2 | 3.1 | – | – | – | – | – | –
9 | CC(C)C[C@H](C(=O)O)[C@H](Cc1ccc(Oc2cccc3c2CCCN3)nc1)c1nn[nH]n1 [Example 389, (2S)-4-methyl-2-[(1S)-2-[6-(1,2,3,4-tetrahydroquinolin-5-yloxy)pyridin-3-yl]-1-(2H-tetrazol-5-yl)ethyl]pentanoic acid] | 4.4 | 16 | 58 | 100 | 6.2 | 25 | – | – | – | – | – | –
10 | CC(C)C[C@H](C(=O)O)[C@H](Cc1ccc(N2CC(CCO)C2)nc1)c1nnn[nH]1 [Example 333, (2S)-2-[(1S)-2-{6-[3-(2-hydroxyethyl)azetidin-1-yl]pyridin-3-yl}-1-(1H-tetrazol-5-yl)ethyl]-4-methylpentanoic acid] | 8.2 | 58 | 170 | 38 | 12.5 | 1.6 | – | – | – | – | – | –
11 | CC(C)C[C@H](C(=O)O)[C@H](Cc1ccc(-c2ccc3c(c2)CNC3)cn1)c1nnn[nH]1 [Example 99, (S)-2-((S)-2-(5-(isoindolin-5-yl)pyridin-2-yl)-1-(1H-tetrazol-5-yl)ethyl)-4-methylpentanoic acid] | – | – | – | – | – | – | 350 | 600 | 3900 | 100 | 75 | 31
12 | CC(C)[C@H](C(=O)O)[C@H](Cc1ccc(NCCO)cn1)c1nnn[nH]1 [Example 139, (2S,3S)-4-(5-((2-hydroxyethyl)amino)pyridin-2-yl)-2-isopropyl-3-(1H-tetrazol-5-yl)butanoic acid] | – | – | – | – | – | – | 34 | 56 | 1900 | 12.5 | 38 | 0.39
13 | CC(C)C[C@H](C(=O)O)[C@H](Cc1ccc(Oc2ccc(C(C)N)nc2)nc1)c1nn[nH]n1 (stereo partly drawn) [Example 380, (2S)-2-[(1S)-2-(6-{[6-(1-aminoethyl)pyridin-3-yl]oxy}pyridin-3-yl)-1-(2H-tetrazol-5-yl)ethyl]-4-methylpentanoic acid] | 2.4 | 12 | 64 | 50 | 4.7 | 4.7 | – | – | – | – | – | –
14 | CC(C)[C@H](C(=O)O)[C@H](Cc1ccc(C2CCNC2)nc1)c1nnn[nH]1 (stereo partly drawn) [Example 105, (2S,3S)-2-isopropyl-4-(6-(pyrrolidin-3-yl)pyridin-3-yl)-3-(1H-tetrazol-5-yl)butanoic acid] | – | – | – | – | – | – | 20 | 170 | 14000 | 12.5 | 50 | 3.1
15 | CCC[C@H](C(=O)O)[C@H](Cc1ccc(OCCN)nc1)c1nnn[nH]1 [Example 130, (S)-2-((S)-2-(6-(2-aminoethoxy)pyridin-3-yl)-1-(1H-tetrazol-5-yl)ethyl)pentanoic acid] | – | – | – | – | – | – | 8.3 | 900 | 8400 | 18.8 | 50 | 4.7
